Data published in ChEMBL document CHEMBL5512683, “Discovery of Novel ERα and Aromatase Dual-Targeting PROTAC Degraders to Overcome Endocrine-Resistant Breast Cancer” (J Med Chem, 2024).
Calls of active or inactive are those of the source. No cut-off for these calls is given here.

Key:
Estrogen receptor beta = Estrogen receptor beta (Homo sapiens, UniProt Q92731); assay: Binding affinity to human ERbeta assessed as inhibition constant incubated under dark condition for 2 hrs by competitive fluorometric binding assay
[1] = molecular target: von Hippel-Lindau disease tumor suppressor/Aromatase (Homo sapiens, UniProt P11511+P40337); assay: PROTAC activity at human ARO/VHL E3 ligase in human MCF-7 cells assessed as degradation of ARO at 1 uM incubated for 24 hrs by Western blot analysis; type: cell-based; details: mcf7, 24 h
MCF7 [2] = assay: Antiproliferative activity against human resistant MCF7 cells harboring ERalpha Y537S mutant at LBD assessed as cell viability incubated for 96 hrs by CCK8 assay; details: MCF7, 96 h
MCF7 [3] = assay: Antiproliferative activity against human resistant MCF7 cells harboring ERalpha D538G mutant at LBD assessed as cell viability incubated for 96 hrs by CCK8 assay; details: MCF7, 96 h
Aromatase = molecular target: T1, Aromatase (Homo sapiens, UniProt P11511); assay: Inhibition of recombinant human aromatase using ARO substrate/NADP+ mixture by fluorescence assay
T1 sequence (P11511 whole entry): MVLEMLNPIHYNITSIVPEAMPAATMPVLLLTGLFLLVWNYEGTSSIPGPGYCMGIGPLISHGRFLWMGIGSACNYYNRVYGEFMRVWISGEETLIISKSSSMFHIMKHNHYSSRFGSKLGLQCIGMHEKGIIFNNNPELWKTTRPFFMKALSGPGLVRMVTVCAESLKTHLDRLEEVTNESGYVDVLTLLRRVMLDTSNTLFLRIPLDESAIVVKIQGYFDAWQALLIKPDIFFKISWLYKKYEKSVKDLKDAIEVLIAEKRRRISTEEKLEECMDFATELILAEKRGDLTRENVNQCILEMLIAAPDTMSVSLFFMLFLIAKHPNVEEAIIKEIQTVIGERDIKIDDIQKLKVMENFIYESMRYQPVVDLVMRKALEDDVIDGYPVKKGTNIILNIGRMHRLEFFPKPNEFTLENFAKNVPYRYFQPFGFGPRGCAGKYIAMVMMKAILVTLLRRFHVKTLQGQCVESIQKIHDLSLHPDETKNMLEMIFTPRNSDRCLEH

[4] = Anti-proliferative activity against human MCF-10A cells incubated for 96 hrs by CCK8 assay; type: toxicity, cell-based
MCF7 [5] = assay: Anti-proliferative activity against ERalpha positive human MCF7 cells incubated for 96 hrs by CCK8 assay; details: MCF7, 96 h
MCF7 [6] = assay: Antiproliferative activity against human resistant MCF7 cells harboring EGFR assessed as cell viability incubated for 96 hrs by CCK8 assay; details: MCF7, 96 h
MCF7 [7] = assay: In vivo PROTAC activity in ERalpha/VHL E3 ligase in human MCF7 cell xenografted in Balb/c mouse model assessed as reduction in ERalpha level in tumor at 5 mg/kg, ip every other day measured upto 20 days; type: functional, organism-based; details: time <= 20.0 day
MCF7 [8] = assay: In vivo PROTAC activity in aromatase/VHL E3 ligase in human MCF7 cell xenografted in Balb/c mouse model assessed as reduction in ARO level in tumor at 5 mg/kg, ip every other day measured upto 20 days; type: functional, organism-based; details: time <= 20.0 day

Sequence of von Hippel-Lindau disease tumor suppressor/Aromatase (P40337 whole entry, one chain of several, the tested form may be a part): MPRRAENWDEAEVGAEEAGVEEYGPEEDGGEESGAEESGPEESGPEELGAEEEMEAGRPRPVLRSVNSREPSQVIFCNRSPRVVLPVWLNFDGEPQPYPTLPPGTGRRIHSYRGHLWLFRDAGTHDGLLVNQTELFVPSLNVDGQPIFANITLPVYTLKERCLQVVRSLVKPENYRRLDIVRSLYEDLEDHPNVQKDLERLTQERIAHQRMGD
Sequence of Estrogen receptor beta (Q92731 whole entry): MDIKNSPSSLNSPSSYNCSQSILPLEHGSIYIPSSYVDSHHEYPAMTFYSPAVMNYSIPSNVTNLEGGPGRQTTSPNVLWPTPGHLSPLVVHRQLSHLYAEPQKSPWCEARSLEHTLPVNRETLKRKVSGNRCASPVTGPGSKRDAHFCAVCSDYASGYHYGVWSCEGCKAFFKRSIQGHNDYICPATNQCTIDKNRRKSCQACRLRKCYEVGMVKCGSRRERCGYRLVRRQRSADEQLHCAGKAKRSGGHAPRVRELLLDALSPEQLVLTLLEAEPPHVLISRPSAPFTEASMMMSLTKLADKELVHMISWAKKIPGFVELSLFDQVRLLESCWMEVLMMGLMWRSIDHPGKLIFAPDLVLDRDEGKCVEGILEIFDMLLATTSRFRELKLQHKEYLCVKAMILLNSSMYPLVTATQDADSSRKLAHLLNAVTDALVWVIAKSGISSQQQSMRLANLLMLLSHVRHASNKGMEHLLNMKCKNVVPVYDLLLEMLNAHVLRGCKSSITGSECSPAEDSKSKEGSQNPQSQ

Compound | Ki (Estrogen receptor beta) [µM] | Activity [1] | IC50 (MCF7 [2]) [µM] | IC50 (MCF7 [3]) [µM] | IC50 (Aromatase) [µM] | IC50 at 96 h [4] [µM] | IC50 (MCF7 [5]) [µM] | IC50 (MCF7 [6]) [µM] | Activity (MCF7 [7]) | Activity (MCF7 [8])
Cc1ncsc1-c1ccc([C@H](C)NC(=O)[C@@H]2C[C@@H](O)CN2C(=O)[C@@H](NC(=O)CCCCCCCCCOc2ccc(N(CC(F)(F)F)S(=O)(=O)C3CC4OC3C(c3ccc(-n5ccnc5)cc3)=C4c3ccc(O)cc3)cc2)C(C)(C)C)cc1 (stereo partly specified) | > 79 | Active | 100 | > 100 | > 100 | > 100 | 0.33 | > 100 |  | 
Cc1ncsc1-c1ccc([C@H](C)NC(=O)[C@@H]2C[C@@H](O)CN2C(=O)[C@@H](NC(=O)CCCCCCCCOc2ccc(N(CC(F)(F)F)S(=O)(=O)C3CC4OC3C(c3ccc(-n5ccnc5)cc3)=C4c3ccc(O)cc3)cc2)C(C)(C)C)cc1 (stereo partly specified) | > 79 | Active | 100 | 1.8 | > 100 | > 100 | 1.3 | 1.4 |  | 
Cc1ncsc1-c1ccc([C@H](C)NC(=O)[C@@H]2C[C@@H](O)CN2C(=O)[C@@H](NC(=O)CCCCCCOc2ccc(N(CC(F)(F)F)S(=O)(=O)C3CC4OC3C(c3ccc(-n5ccnc5)cc3)=C4c3ccc(O)cc3)cc2)C(C)(C)C)cc1 (stereo partly specified) |  | Active | > 100 | 1.7 | 5.2 | > 100 | 2.3 | 5.5 |  | 
CC/C(=C(\c1ccc(O)cc1)c1ccc(OCCN(C)C)cc1)c1ccccc1 [AFIMOXIFENE] |  |  |  |  | > 100 | 21 |  |  |  | 
C[C@]12CC[C@@H]3c4ccc(O)cc4C[C@@H](CCCCCCCCC[S+]([O-])CCCC(F)(F)C(F)(F)F)[C@H]3[C@@H]1CC[C@@H]2O (stereo partly specified) [FULVESTRANT] |  |  |  |  | > 100 | > 100 |  |  | Active | Active
Cc1ncsc1-c1ccc([C@H](C)NC(=O)[C@@H]2C[C@@H](O)CN2C(=O)[C@@H](NC(=O)CCCCCCCCCCCOc2ccc(N(CC(F)(F)F)S(=O)(=O)C3CC4OC3C(c3ccc(-n5ccnc5)cc3)=C4c3ccc(O)cc3)cc2)C(C)(C)C)cc1 (stereo partly specified) | > 79 | Active | 3.5 | 0.23 | > 100 | > 100 | 2 | > 100 |  | 
Cc1ncsc1-c1ccc([C@H](C)NC(=O)[C@@H]2C[C@@H](O)CN2C(=O)[C@@H](NC(=O)CCCOc2ccc(N(CC(F)(F)F)S(=O)(=O)C3CC4OC3C(c3ccc(-n5ccnc5)cc3)=C4c3ccc(O)cc3)cc2)C(C)(C)C)cc1 (stereo partly specified) |  | Active | > 100 | > 100 | 1.2 | > 100 | 0.13 | > 100 |  | 
COc1ccc(N(CC(F)(F)F)S(=O)(=O)C2CC3OC2C(c2ccc(O)cc2)=C3c2ccc(O)cc2)cc1 (stereo unspecified) |  |  |  |  | > 100 |  |  |  |  | 
Cc1ncsc1-c1ccc([C@H](C)NC(=O)[C@@H]2C[C@@H](O)CN2C(=O)[C@@H](NC(=O)CCCCCCCOc2ccc(N(CC(F)(F)F)S(=O)(=O)C3CC4OC3C(c3ccc(-n5ccnc5)cc3)=C4c3ccc(O)cc3)cc2)C(C)(C)C)cc1 (stereo partly specified) |  | Active | 30 | 29 | 10 | > 100 | 1.8 | 4.7 |  | 
Cc1ncsc1-c1ccc([C@@H](C)NC(=O)[C@H]2C[C@H](O)CN2C(=O)[C@H](NC(=O)COCCOCCOCCOc2ccc(N(CC(F)(F)F)S(=O)(=O)C3CC4OC3C(c3ccc(-n5ccnc5)cc3)=C4c3ccc(O)cc3)cc2)C(C)(C)C)cc1 (stereo partly specified) |  | Active | 100 | > 100 | 2.6 | > 100 | 0.51 | 7.3 |  | 
O=C(COc1cccc2c1C(=O)N(C1CCC(=O)NC1=O)C2=O)NCCCCCOc1ccc(N(CC(F)(F)F)S(=O)(=O)C2CC3OC2C(c2ccc(-n4ccnc4)cc2)=C3c2ccc(O)cc2)cc1 (stereo unspecified) | > 79 |  | 23 | 3.6 | > 100 | > 100 | 9.3 | 23 |  | 
Cc1ncsc1-c1ccc([C@H](C)NC(=O)[C@@H]2C[C@@H](O)CN2C(=O)[C@@H](NC(=O)COCCOc2ccc(N(CC(F)(F)F)S(=O)(=O)C3CC4OC3C(c3ccc(-n5ccnc5)cc3)=C4c3ccc(O)cc3)cc2)C(C)(C)C)cc1 (stereo partly specified) | > 79 | Active | 15 | > 100 | 3.9 | > 100 | 1.5 | > 100 |  | 
Cc1ncsc1-c1ccc([C@H](C)NC(=O)[C@@H]2C[C@@H](O)CN2C(=O)[C@@H](NC(=O)CCCCOc2ccc(N(CC(F)(F)F)S(=O)(=O)C3CC4OC3C(c3ccc(-n5ccnc5)cc3)=C4c3ccc(O)cc3)cc2)C(C)(C)C)cc1 (stereo partly specified) |  | Active | > 100 | 100 | 0.32 | > 100 | 0.6 | 2.2 |  | 
Cc1ncsc1-c1ccc([C@H](C)NC(=O)[C@@H]2C[C@@H](O)CN2C(=O)[C@@H](NC(=O)COCCOCCOCCOCCOc2ccc(N(CC(F)(F)F)S(=O)(=O)C3CC4OC3C(c3ccc(-n5ccnc5)cc3)=C4c3ccc(O)cc3)cc2)C(C)(C)C)cc1 (stereo partly specified) |  | Active | 100 | 26 | 0.64 | > 100 | 2.4 | 17 |  | 
N#Cc1ccc(C(c2ccc(C#N)cc2)n2cncn2)cc1 [LETROZOLE] |  |  |  |  |  | > 100 |  |  | Active | Active
Cc1ncsc1-c1ccc([C@H](C)NC(=O)[C@@H]2C[C@@H](O)CN2C(=O)[C@@H](NC(=O)CCCCCCCCCCOc2ccc(N(CC(F)(F)F)S(=O)(=O)C3CC4OC3C(c3ccc(-n5ccnc5)cc3)=C4c3ccc(O)cc3)cc2)C(C)(C)C)cc1 (stereo partly specified) |  | Active | 22 | > 100 | > 100 | > 100 | 4.9 | > 100 |  | 
Cc1ncsc1-c1ccc([C@H](C)NC(=O)[C@@H]2C[C@@H](O)CN2C(=O)[C@@H](NC(=O)CCCCCOc2ccc(N(CC(F)(F)F)S(=O)(=O)C3CC4OC3C(c3ccc(-n5cncn5)cc3)=C4c3ccc(O)cc3)cc2)C(C)(C)C)cc1 (stereo partly specified) |  |  | 4 | 0.69 | > 100 | > 100 | 0.56 | 0.63 |  | 
O=C(COc1cccc2c1C(=O)N(C1CCC(=O)NC1=O)C2=O)NCCCOc1ccc(N(CC(F)(F)F)S(=O)(=O)C2CC3OC2C(c2ccc(-n4ccnc4)cc2)=C3c2ccc(O)cc2)cc1 (stereo unspecified) | > 79 |  | 9.5 | 6.4 | > 100 | > 100 | 8.7 | 25 |  | 
